Results reported in paper PMC7606179 (Acta Pharmaceutica Sinica. B, 2020).

test system: NA immobilized magnetic beads (NA from C. perfringens); assay type: binding, Clostridium perfringens

Compound	Behaviour in NA-MB ligand fishing of the artificial mixture
O=c1cc(-c2ccc(O)c(O)c2)oc2cc(O[C@@H]3O[C@H](CO)[C@@H](O)[C@H](O)[C@H]3O)cc(O)c12 [Galuteolin, galuteolin]	started to release from the enzyme when NA-MB was extracted using 50% organic solvent
O=c1c(O)c(-c2ccc(O)c(O)c2)oc2cc(O)cc(O)c12 [Quercetin]	specific inhibitors of NA
COc1ccc2c3c1O[C@H]1C[C@@H](O)C=C[C@@]31CCN(C)C2 [galantamine]	non-inhibitor of NA
COc1cc(-c2oc3cc(O)cc(O)c3c(=O)c2O)ccc1O [isorhamnetin]	started to release from the enzyme when NA-MB was extracted using 50% organic solvent
O=c1cc(-c2ccc(O)c(O)c2)oc2cc(O)cc(O)c12 [luteolin]	specific inhibitors of NA
COc1cc2c(cc1O)CC[n+]1cc3c(OC)c(OC)ccc3cc1-2 [jatrorrhizine]	gradually washed out from M-S2 to M-S6
